# Measurements published in US10344049B2, “Substituted steroids for the treatment of cancer” (AQUAVAN TECHNOLOGY CO., LTD., priority 2017, dated 2019).
# Read-outs that look alike come from different tables or passages of the source.
# Legend:
# Type in all cases: cell-based
# [1] = test system: human breast cancer cells MDA-MB-468; experiment: Cell viability test (Resazurin), MDA-MB-468 cells
# Description: (§1) Cell viability was determined with Resazurin (at a final concentration of 25 μg/mL).
# [2] = test system: human colorectal cancer cells SW-480; experiment: Cell viability test (Resazurin), SW480 cells; design: evaluation of ability to inhibit cell growth activity (IC50): scale not given here
# Description: as §1
# [3] = test system: human lung cancer cells A549; experiment: Cell viability test (Resazurin), A549 cells; design: evaluation of ability to inhibit cell growth activity (IC50): scale not given here
# Description: as §1
# [4] = test system: human breast cancer cells MDA-MB-231; experiment: Cell viability test (Resazurin), MDA-MB-231 cells; design: evaluation of ability to inhibit cell growth activity (IC50): scale not given here
# Description: as §1
# [5] = test system: African green monkey kidney cells Vero; experiment: Cell viability test (Resazurin), Vero cells; conditions: for evaluation of ability to inhibit cell growth activity (IC50): grade of the IC50 of Table 2
# Description: as §1
# [6] = test system: human leukemia cells U937; experiment: Cell viability test (Resazurin), U937 cells
# Description: as §1
# [7] = test system: human liver cancer cells Mahlavu; experiment: Cell viability test (Resazurin), Mahlavu cells
# Description: as §1
# [8] = test system: human Glioblastoma cells U87-MG; experiment: Cell viability test (Resazurin), U87-MG cells; design: evaluation of ability to inhibit cell growth activity (IC50): scale not given here
# Description: as §1
# [9] = Homo sapiens, MDA-MB-468, MDA-MB-468 cells, grade of the IC50 of Table 2, read-out: evaluation of ability to inhibit cell growth activity (IC50)
# [10] = MDA-MB-468 cells, 48 hours, 0.1% FCS, Resazurin, read-out: inhibitory concentrations of cell growth activity IC50
# [11] = Homo sapiens, SW480, SW480 cells, grade of the IC50 of Table 2, read-out: evaluation of ability to inhibit cell growth activity (IC50)
# [12] = SW480 cells, 48 hours, 0.1% FCS, Resazurin, read-out: inhibitory concentrations of cell growth activity IC50
# [13] = A549 cells, 48 hours, 0.1% FCS, Resazurin, read-out: inhibitory concentrations of cell growth activity IC50
# [14] = A549 cells, grade of the IC50 of Table 2, read-out: evaluation of ability to inhibit cell growth activity (IC50)
# [15] = Homo sapiens, MDA-MB-231, MDA-MB-231 cells, grade of the IC50 of Table 2, read-out: evaluation of ability to inhibit cell growth activity (IC50)
# [16] = MDA-MB-231 cells, 48 hours, 0.1% FCS, Resazurin, read-out: inhibitory concentrations of cell growth activity IC50
# [17] = 48 hours, 0.1% FCS, Resazurin, read-out: inhibitory concentrations of cell growth activity IC50
# [18] = U937 cells, 48 hours, 0.1% FCS, Resazurin, read-out: inhibitory concentrations of cell growth activity IC50
# [19] = U937 cells, grade of the IC50 of Table 2, read-out: evaluation of ability to inhibit cell growth activity (IC50)
# [20] = grade of the IC50 of Table 2, read-out: evaluation of ability to inhibit cell growth activity (IC50)
# [21] = Homo sapiens, U-87 MG, grade of the IC50 of Table 2, read-out: evaluation of ability to inhibit cell growth activity (IC50)
# [22] = MDA-MB-468 cells, grade of the IC50 of Table 2, read-out: evaluation of ability to inhibit cell growth activity (IC50)
# [23] = SW480 cells, grade of the IC50 of Table 2, read-out: evaluation of ability to inhibit cell growth activity (IC50)
# [24] = Homo sapiens, A549, 48 h, A549 cells, 48 hours, 0.1% FCS, Resazurin, read-out: inhibitory concentrations of cell growth activity IC50
# [25] = Homo sapiens, A549, A549 cells, grade of the IC50 of Table 2, read-out: evaluation of ability to inhibit cell growth activity (IC50)
# [26] = Homo sapiens, MDA-MB-231, 48 h, MDA-MB-231 cells, 48 hours, 0.1% FCS, Resazurin, read-out: inhibitory concentrations of cell growth activity IC50
# [27] = MDA-MB-231 cells, grade of the IC50 of Table 2, read-out: evaluation of ability to inhibit cell growth activity (IC50)
# [28] = Chlorocebus sabaeus, Vero, 48 h, 0.1% FCS, Resazurin, read-out: inhibitory concentrations of cell growth activity IC50
# [29] = Homo sapiens, U-937, 48 h, U937 cells, 48 hours, 0.1% FCS, Resazurin, read-out: inhibitory concentrations of cell growth activity IC50
# [30] = Homo sapiens, U-937, U937 cells, grade of the IC50 of Table 2, read-out: evaluation of ability to inhibit cell growth activity (IC50)
# [31] = Homo sapiens, Mahlavu, 48 h, 0.1% FCS, Resazurin, read-out: inhibitory concentrations of cell growth activity IC50
# [32] = Homo sapiens, Mahlavu, grade of the IC50 of Table 2, read-out: evaluation of ability to inhibit cell growth activity (IC50)
SMILES,"IC50 [1, 9] [µM]","IC50 [1, 10] [µM]","IC50 [2, 11] [µM]","IC50 [2, 12] [µM]","IC50 [3, 13] [µM]","IC50 [3, 14] [µM]","IC50 [4, 15] [µM]","IC50 [4, 16] [µM]","IC50 [5, 17] [µM]",evaluation of ability to inhibit cell growth activity (IC50) [5],"IC50 [6, 18] [µM]","IC50 [6, 19] [µM]","IC50 [7, 17] [µM]","IC50 [7, 20] [µM]","IC50 [8, 17] [µM]","IC50 [8, 21] [µM]","IC50 [1, 22] [µM]","IC50 [2, 23] [µM]","IC50 [3, 24] [µM]","IC50 [3, 25] [µM]",other results
CO[C@H]1O[C@]23C=C[C@@H]4[C@@]1(CC[C@]1(C)[C@@H]([C@H](C)C/C=C/C(C)(C)O)CC[C@@]41C)[C@@H]2CC[C@H](O)C3(C)C [Compound 20],< 8,6.9,8 to 16,12.6,20.1,16 to 64,8 to 16,10.4,12.5,◯,4.33,< 8,19.7,16 to 64,12.2,8 to 16,,,,,"evaluation of ability to inhibit cell growth activity (IC50) ([2]; SW480 cells, grade of the IC50 of Table 2): ◯; evaluation of ability to inhibit cell growth activity (IC50) ([4]; MDA-MB-231 cells, grade of the IC50 of Table 2): ◯; evaluation of ability to inhibit cell growth activity (IC50) ([8]; grade of the IC50 of Table 2): ◯"
COC1O[C@]23C=C[C@@H]4[C@@]1(CC[C@]1(C)[C@@H]([C@H](C)C[C@@H](O)C=C(C)C)CC[C@@]41C)[C@@H]2CC[C@H](O)C3(C)C (stereo partly drawn) [Compound 21],,35.4,,118,,,,,,,,,,,83.5,,16 to 64,64 to 256,> 256,> 256,"IC50 [4, 26]: 130 µM; IC50 [4, 27]: 64 to 256 µM; IC50 [5, 28]: > 256 µM; IC50 ([5]; Chlorocebus sabaeus, Vero, grade of the IC50 of Table 2, read-out: evaluation of ability to inhibit cell growth activity (IC50)): > 256 µM; IC50 [6, 29]: 6.19 µM; IC50 [6, 30]: < 8 µM; IC50 [7, 31]: > 256 µM; IC50 [7, 32]: > 256 µM; IC50 [8, 20]: 64 to 256 µM"
CO[C@@H]1O[C@]23C=C[C@@H]4[C@@]1(CC[C@]1(C)[C@@H]([C@H](C)C[C@@H](O)C=C(C)C)CC[C@@]41C)[C@@H]2CC[C@H](O)C3(C)C [Compound 22],,> 256,,> 256,> 256,> 256,,> 256,> 256,,6.17,< 8,> 256,> 256,> 256,,> 256,> 256,,,"IC50 [4, 27]: > 256 µM; IC50 [5, 20]: > 256 µM; IC50 [8, 20]: > 256 µM"
CO[C@H]1C=C2[C@@H](CC[C@H](O)C2(C)C)[C@]2(C=O)CC[C@]3(C)[C@@H]([C@H](C)C/C=C/C(C)(C)OC)CC[C@@]3(C)[C@H]12 [Compound 23],< 8,,< 8,,,,< 8,,,◯,,,,,,< 8,,,15.3,8 to 16,"IC50 ([1]; Homo sapiens, MDA-MB-468, 48 h, MDA-MB-468 cells, 48 hours, 0.1% FCS, Resazurin, read-out: inhibitory concentrations of cell growth activity IC50): 7.55 µM; IC50 ([2]; Homo sapiens, SW480, 48 h, SW480 cells, 48 hours, 0.1% FCS, Resazurin, read-out: inhibitory concentrations of cell growth activity IC50): 7.56 µM; evaluation of ability to inhibit cell growth activity (IC50) ([3]; A549 cells, grade of the IC50 of Table 2): ◯; IC50 [4, 26]: 7.91 µM; IC50 [5, 28]: 15.9 µM; IC50 [6, 29]: 5.75 µM; IC50 [6, 30]: < 8 µM; IC50 [7, 31]: 15.4 µM; IC50 [7, 32]: 8 to 16 µM; evaluation of ability to inhibit cell growth activity (IC50) ([7]; grade of the IC50 of Table 2): ◯; IC50 ([8]; Homo sapiens, U-87 MG, 48 h, 0.1% FCS, Resazurin, read-out: inhibitory concentrations of cell growth activity IC50): 7.65 µM"
